# Measured values from publication PMC12058896, “Potent antimicrobial activity of hydrogel loaded with the antimicrobial peptide, D-Bac8c^2,5 Leu, against monospecies and polymicrobial biofilms of Staphylococcus aureus and Pseudomonas aeruginosa” (Frontiers in Microbiology, 2025).
# Non-standard residues stand in square brackets, D forms with d. Residues, ends and D or L forms follow the SMILES beside them.
# Key:
# [1] = system: tested strains (SH1000, BH48, USA300, BH1CC, PAO1); assay: In vitro serial passage, induction of resistance; format: cell-based, S. aureus and P. aeruginosa; details: subculturing for 14 days at sub-MIC concentrations
# Method: This assay was performed as outlined previously with some modifications ([Ge et al., 1999]; [Mohan et al., 2019]). Briefly, the in vitro serial passage study involved exposing bacteria diluted to 10^4 CFU/mL in cationic adjusted Muller Hinton Broth (Merck, Ireland) to D-Bac8c^2,5 Leu at one-half of the previously established bactericidal concentration. After 90 min of incubation at 37°C, 10 μL was plated in triplicate on MH agar and incubated again overnight. Post-incubation, surviving colonies were harvested, diluted in PBS and re-adjusted to 1 × 10^4 CFU/mL before repeated treatment with the sub-bactericidal concentration. This concentration was determined prior to the initiation of the study and after the 4th, 7th, 11th, and 14th passages. If the concentration after these passages was greater than the original determinate, then at passages […], the amount of peptide used during the bacterial challenge was increased. This was continued over a 14-day course. This assay was performed in independent duplicates.
# human red blood cells = format: cell-based
# Method: Potential haemolytic activity of the peptide was determined using fresh human erythrocytes from healthy donors based on the method described by [Cantisani et al. (2013)]. Human blood was drawn [ethylenediaminetetraacetic acid (EDTA); 1.6 mg/mL], and red blood cells (RBCs) were separated by centrifugation at 1000 x g for 5 min at 18°C. Upon 3 washes with PBS, the RBCs were further diluted 2-fold (v/v) into PBS. D-Bac8c^2,5 Leu was added to erythrocyte suspension at a final concentration ranging from 3.125 to 200 μg/mL in a final volume of 100 μL. Samples were incubated at 37°C for 24 h. The level of haemolysis was assessed by measuring the absorbance of supernatant at 490 nm. Triton-X-100 was used as a positive control for haemolysis.
# [2] = system: monospecies and polymicrobial biofilms of Staphylococcus aureus and Pseudomonas aeruginosa; assay: Static biofilm assays; format: cell-based
# Method: Biofilms were formed under static conditions using flat 96-well polystyrene plates as described previously with few modifications ([[…] al., 2018]). Briefly, overnight cultures in BHI were washed and diluted 1:200 in fresh Bolton Broth media supplemented with 50% bovine heparin plasma, and 5% laked horse blood. From this suspension, 100 μL was used to inoculate the microtiter plate wells prior to static incubation at 37°C for 24 h, 3 days and 5 days. The media in each well was changed daily during prolonged incubation periods (3 and 5 days). […] After incubation with D-Bac8c^2,5 Leu, biofilms were washed twice with PBS and biofilm assessment was performed. For the polymicrobial biofilms, a bacterial solution ratio 1:1 of S. aureus and P. aeruginosa at 1 × 10^5 CFU/mL each was used to inoculate the wells. In each assay, inoculated medium without antimicrobials and uninoculated medium served as growth and sterility controls, respectively. […] Viability of biofilm cells after treatment was measured using resazurin-conversion assay as previously described ([Hogan et al., 2016]) (Sigma-Aldrich, Ireland). […] Fluorescence intensity was detected at excitation of 544 nm and emission of 590 nm using a fluorimeter, Perkin Elmer 2030 Multilabeled Reader, Victor 3X. […] After overnight incubation at 37°C, CFU were counted and results were expressed as log10CFU/mL.
# [3] = system: pro-inflammatory cytokines; details: cited from earlier work
# PAO1 = assay: microbe, parasite or virus in culture; format: cell-based, Pseudomonas aeruginosa; details: PAO1, 18 h
# Method: (§1) Strains used in the study were isolates of methicillin-resistant Staphylococcus aureus (MRSA); USA300 LAC, BH1CC ([O’Neill et al., 2007]), methicillin-sensitive S. aureus (MSSA); SH1000 ([Horsburgh et al., 2002]) and BH48 ([O’Neill et al., 2007]); and Pseudomonas aeruginosa PAO1 (ATCC […]). Clinical isolates were obtained from a previous collection of isolates of infected wounds. Bacteria were grown aerobically at 37°C with shaking at 200 rpm in Brain Heart Infusion (BHI, Oxoid, Ireland). Selective media, Mannitol Salt Agar (SLS, Ireland) and MacConkey agar (SLS, Ireland), for re-isolation of bacterial strains from mixed species biofilms were used. Bolton Broth (Fannin, Ireland) supplemented with 50% bovine heparin plasma (TebuBio, UK), and 5% laked horse blood (Sigma-Aldrich, Ireland) was used to mimic in vivo conditions for static antibiofilm testing. For dynamic biofilm growth Simulated Wound Fluid (SWF) prepared as described previously with slight modification, 3% v/v fetal bovine serum in maximum recovery diluent (Merck, Ireland) was used ([Barbour et al., 2016]).
# Minimum inhibitory concentration (MIC) was determined aerobically using the broth microdilution assay as recommended by the Clinical and Laboratory Standards Institute (CLSI) ([CLSI, 2018]). Briefly, 2-fold serial dilutions of the antimicrobial peptides of interest and conventional antibiotics were prepared in Mueller-Hinton broth (MHB) (Merck, Ireland) in a 96-well round bottom polypropylene plate (ThermoFisher, Ireland). Diluted bacterial suspensions in sterile PBS (Sigma, Ireland) were added to each well resulting in a final cell density of approximately 10^5 colony forming units (CFU)/mL. Microplates were incubated statically for 18 h at 37°C. In each assay, inoculated medium without antimicrobials and uninoculated medium served as growth and sterility controls, respectively. Conventional antibiotics, gentamicin (Merck, Ireland) and mupirocin (SLS, UK), were tested as comparator antimicrobials. The MIC value was defined as the lowest antimicrobial concentration showing no visible growth relative to positive (no antimicrobial agent) and negative controls (BHI alone). Experiments were conducted in triplicate, and independent replicates were performed three times to yield n = 3.
# S. aureus strains = format: cell-based, Staphylococcus aureus; details: 2 MRSA and 2 MSSA strains, summed up in text
# Method: as §1
# Minimum inhibitory concentration (MIC) was determined aerobically using the broth microdilution assay as recommended by the Clinical and Laboratory Standards Institute (CLSI) ([CLSI, 2018]). […]
compound,measurement,setting,value
"CC(C)C[C@@H](NC(=O)[C@H](N)CCCNC(=N)N)C(=O)N[C@H](Cc1c[nH]c2ccccc12)C(=O)N[C@@H](C(=O)N[C@H](CC(C)C)C(=O)N[C@H](Cc1c[nH]c2ccccc12)C(=O)N[C@H](CCCNC(=N)N)C(=O)N[C@H](CCCNC(=N)N)C(N)=O)C(C)C [D-Bac8c^2,5 Leu] (H-[dR][dL][dW][dV][dL][dW][dR][dR]-NH2; N-terminus assumed)",development of resistance (change in MIC),[1],not accompanied by increased resistance
same,haemolytic activities,human red blood cells,negligible
same,reduction in bacterial load compared to untreated controls,"[2]; static biofilm assays, summed up in abstract",2–3 log
same,minimum concentration needed to inactivate biofilms,"[2]; static biofilms, 6 h treatment (Figures 1, 2 and Table 3)",64 µg/mL
same,release of pro-inflammatory cytokines in human blood,[3],did not induce
same,MIC,PAO1,16 µg/mL
same,MIC against S. aureus strains,S. aureus strains,8 µg/mL
